Data set [1] addresses T1, hPEPT1 (Homo sapiens, UniProt P46059).
T1 sequence (P46059 1-708): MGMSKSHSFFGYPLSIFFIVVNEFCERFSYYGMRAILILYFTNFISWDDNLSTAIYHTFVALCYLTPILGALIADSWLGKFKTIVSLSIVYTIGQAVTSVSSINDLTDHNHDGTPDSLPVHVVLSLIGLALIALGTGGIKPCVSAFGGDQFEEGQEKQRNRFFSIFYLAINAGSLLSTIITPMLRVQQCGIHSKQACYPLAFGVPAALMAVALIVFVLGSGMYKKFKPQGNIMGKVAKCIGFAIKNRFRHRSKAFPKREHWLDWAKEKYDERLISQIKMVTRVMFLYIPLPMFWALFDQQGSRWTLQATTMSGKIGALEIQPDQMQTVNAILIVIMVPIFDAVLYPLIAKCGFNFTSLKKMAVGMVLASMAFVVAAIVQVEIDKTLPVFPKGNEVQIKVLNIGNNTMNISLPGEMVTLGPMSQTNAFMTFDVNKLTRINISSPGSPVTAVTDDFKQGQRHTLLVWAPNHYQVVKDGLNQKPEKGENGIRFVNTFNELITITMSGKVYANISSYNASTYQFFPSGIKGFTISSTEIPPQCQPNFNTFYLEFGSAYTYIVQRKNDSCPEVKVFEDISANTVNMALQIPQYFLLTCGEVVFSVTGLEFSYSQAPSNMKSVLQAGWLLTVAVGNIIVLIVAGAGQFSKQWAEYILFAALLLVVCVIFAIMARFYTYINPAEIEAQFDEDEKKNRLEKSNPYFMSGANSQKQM
Kind of data set: [3H]Gly-Sar uptake inhibition in Caco-2 cells. Type of data set: cell-based. How it is done:
The affinity of zanamivir, GOC, 3-hydroxyphenylglycine (3-HPG) and prodrugs thereof for particular transporters is evaluated using [^3H]Gly-Sar uptake inhibition in Caco-2 cells and in HeLa/hPEPT1 cells. Valacyclovir, a known substrate of hPEPT1, was used as positive control (Table 1). […] The valyl and isoleucyl prodrugs of zanamivir, GOC, and 3-HPG have higher affinity for hPEPT1 than the parent compounds.

Data set [2] in a line: Permeability in rat perfused jejunum. It counts as in vivo. From the text:
Improved permeability of prodrugs Zan-Val, GOC-Val, and 3-HPG-Ile compared to the parent compounds is observed in the rat perfused jejunum, as shown in FIG. 3.

For data set [3], the target named is T1, hPEPT1. Briefly: [3H]Gly-Sar uptake inhibition in HeLa/hPEPT1 cells. It counts as cell-based. Also on record: expressed in transfected cells; host or cells: HeLa.
Data set [4] can be described thus: AUC and bioavailability of GOC and GOC prodrugs in fasted rats (IV or duodenal injection). The settings on record: for AUC0-4 hr, Prodrug / AUC0-4 hr, Total AUC / AUC0-4 hr, GOC / % F: rat. Here is the method:
10 mg-eq/kg of GOC or GOC prodrugs were directly injected to duodenum segment of fasted rats. […] Appropriate volume of blood samples was taken from the jugular vein at the predetermined time points.
Rat plasma samples were analyzed for GOC prodrug and GOC using LCMSMS following solid phase extraction sampling preparation. A reverse phase solid-phase cartridge (HLB, 30 mg/1 cc, Waters) was activated with 1.0 mL of methanol and equilibrated with 1.0 mL of water. A 250 ul aliquot of rat plasma was acidified with 250 uL of 1% TFA solution and loaded on to the cartridges. After washing with 1.0 ml water, the compounds are eluted with 1 ml of 2% acetic acid solution. The eluted solvent was evaporated under nitrogen stream in TurboVap and the residue was reconstituted in 250 ul of mobile phase.
Samples were analyzed using a LC/MS/MS system (Micromass Quattro II, HP 1100). The HPLC system consisted of a HP1100 system (Hewlett Packard, CA). 10 ul of sample was separated with a C18 column (2.1×150 mm) using a mobile phase of 10-30% acetonitrile:water containing 0.1% formic acid. Quattro II triple quadrupole mass spectrometer (Micromass, Beverly, Mass.) interfaced with the HPLC via electropray source was used for the mass analysis and detection. The data acquisition software was MassLynx (version 4.0). Calibration curves were constructed by weighted (1/x) least square regression of peak area versus concentrations of the calibration standards.
Bioavailability calculation is based on the AUC0-4 hrs.

For data set [5] the following is noted: 10 mg-eq/kg oral gavage to rats; cited from earlier work.
Data set [6] relates to influenza virus neuraminidase. Conditions: read-out: IC50, influenza virus neuraminidase; cited from earlier work.
For data set [7] the following is noted: cited from earlier work; for bioavailability: species not stated.
Data set [8] can be described thus: Hydrolysis of prodrugs in buffer over pH 1.2-7.4 at 37° C. It counts as physicochemical. The settings on record: pH range 1.2-7.4, 37° C. Here is the method: The hydrolysis of prodrugs of the present invention in buffer was studied over the pH range 1.2-7.4 at 37° C.
Data set [9] has as its target T2, VACVase (Homo sapiens, UniProt Q86WA6).
T2 sequence (Q86WA6 38-291): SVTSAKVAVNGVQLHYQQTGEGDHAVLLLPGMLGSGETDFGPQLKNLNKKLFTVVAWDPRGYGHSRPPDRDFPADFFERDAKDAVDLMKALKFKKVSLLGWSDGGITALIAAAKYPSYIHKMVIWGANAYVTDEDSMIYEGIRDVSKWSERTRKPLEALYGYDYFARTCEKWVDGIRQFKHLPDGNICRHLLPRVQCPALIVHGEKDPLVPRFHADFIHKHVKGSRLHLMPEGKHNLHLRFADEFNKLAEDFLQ
Kind of data set: Hydrolysis of prodrugs by VACVase (Michaelis-Menten kinetics).

Substrate in data set [10]: CC(C)[C@H](N)C(=O)OCCOCn1cnc2c(=O)[nH]c(N)nc21
Briefly: purified protein, by the assay type. Conditions: 25.0 °C.

Setting [11] is: HeLa/hPEPT1 cells, mean ± sd, n = 2, read-out: IC50 of [3H]Gly-Sar uptake inhibition.
[12] abbreviates: duodenal administration (OGI) 10 mg-eq/kg.

Like-named read-outs stand apart in the source and are kept apart here.

Consider `NC(C(=O)O)c1cccc(O)c1` (stereo not shown) [3-HPG, 3-hydroxyphenylglycine], for which the “affinity for the transporter” value in [1] and in data set [3] (HeLa/hPEPT1 cells) was “poor affinity” throughout. Further, the “jejunal permeability” value in [2] was “very low, essentially zero permeability”. Also, the 50% inhibitory concentration (IC50) in data set [3] (setting [11]) is more than 5000 µM.

Turning to `CCC(CC)O[C@@H]1C=C(C(=O)OCCNC(=O)[C@@H](N)C(C)C)C[C@H](NC(=N)N)[C@H]1NC(C)=O` [GOC GlyOH L-Val], the “species found in plasma after dosing” value in [4] (rat plasma, OGI 10 mg-eq/kg) was “Only a trace amount of GOC is detected in the plasma”. For the same molecule, in data set [4] (setting [12]), the “AUC0-4 hr, Prodrug” value is 386 ± 406 (ng/mL) · hrs and the “AUC0-4 hr, Total AUC” value is recorded as 401 ± 419 (ng/mL) · hrs.

In the case of `CCC(CC)O[C@@H]1C=C(C(=O)OCC(C)OC(=O)[C@@H](N)C(C)C)C[C@H](NC(=N)N)[C@H]1NC(C)=O` (stereo partly drawn) [GOC PG L-Val], in [4] (setting [12]), the “AUC0-4 hr, Prodrug” value is recorded as 17 ± 12 (ng/mL) · hrs and the “AUC0-4 hr, Total AUC” value was 116 ± 61 (ng/mL) · hrs.

In the case of `CCC(CC)O[C@@H]1C=C(C(=O)O)C[C@H](NC(=N)N)[C@H]1NC(C)=O` [GOC, guanidino oseltamivir carboxylate], the “% F” value in data set [5] is on record as 4.0%; in data set [4] (IV injection 1 mg/kg (reference)) it was 100.0%; in data set [4] (duodenal administration (OGI) 10 mg-eq/kg, based on AUC0-4 hrs) it was 4.6%. Moreover, in data set [5], the Cmax is reported as 60 ng/mL. Further, the “affinity for the transporter” value in data set [1] and in [3] (HeLa/hPEPT1 cells) was “poor affinity” each time. For the same molecule, the results for the half-inhibitory concentration (IC50) in [6] and in data set [3] (setting [11]) were 0.0009 µM and 6600 ± 3900 µM, respectively. The bioavailability in data set [7] is approximately 4.0%. Also, the “jejunal permeability” value in data set [2] is “very low, essentially zero permeability”. The “AUC0-4 hr, GOC” value is given as 385 ± 167 (ng/mL) · hrs in data set [4] (IV injection 1 mg/kg) and 265 ± 91 (ng/mL) · hrs in data set [4] (setting [12]). For the same molecule, the “AUC0-4 hr, Total AUC” value in data set [4] (IV injection 1 mg/kg) was 385 ± 167 (ng/mL) · hrs; in [4] (setting [12]) it was 265 ± 91 (ng/mL) · hrs.

With `CCC(CC)O[C@@H]1C=C(C(=O)OC(C)OC(=O)[C@@H](N)[C@@H](C)CC)C[C@H](NC(=N)N)[C@H]1NC(C)=O` (stereo partly shown) [GOC-Ile, isoleucine ethoxyester of guanidine oseltamivir], the “hydrolysis behaviour in buffer” value in [8] is on record as “pH dependent hydrolysis”. For the same molecule, in data set [3] (setting [11]), the IC50 is 450 ± 180 µM.

Turning to `CCC(CC)O[C@@H]1C=C(C(=O)OC(C)OC(=O)[C@@H](N)C(C)C)C[C@H](NC(=N)N)[C@H]1NC(C)=O` (stereo partly shown) [GOC-Val, valine ethoxyester of guanidine oseltamivir], the “hydrolysis behaviour in buffer” value in [8] is reported as “pH dependent hydrolysis”. In addition, the “jejunal permeability” value in data set [2] is “high permeability, higher than that of metoprolol”. Further, in [3] (setting [11]), the IC50 came out at 190 ± 10 µM. For the same molecule, in data set [9] (hydrolysis by VACVase, 25° C.), the Kcat stood at 8.7 s⁻¹, the Km was 2370 µM and the Vmax was 19.4 nmol/min/μg of VACVase.

As to `CCC(CC)O[C@@H]1C=C(C(=O)O)C[C@H](N)[C@H]1NC(C)=O` [GS4071, oseltamivir carboxylate], the Cmax in [5] is given as 30 ng/mL. For the same molecule, the bioavailability in data set [7] is reported as approximately 4.0%.

With `CCOC(=O)C1=C[C@@H](OC(CC)CC)[C@H](NC(C)=O)[C@@H](N)C1` [GS4104, oseltamivir], in [5], the “% F” value was 35% and the Cmax is listed as 47 ng/mL. Further, the oral bioavailability in data set [7] (in rats, mice, dogs and ferrets) is 11-73%.

For `CCOC(=O)C1=C[C@@H](OC(CC)CC)[C@H](NC(C)=O)[C@@H](NC(=N)N)C1` [GS4109], in data set [5], the Cmax is reported as 30 ng/mL. In data set [7], the bioavailability entry is “approximately 2%”.

Take `CC(C)[C@H](N)C(=O)OCCOCn1cnc2c(=O)[nH]c(N)nc21` [Valcyclovir, Valacyclovir]: half-maximal inhibition in data set [3] (IC50) was put at 1880 ± 510 µM. The Vmax in [9] was 280 nmol/min/μg of VACVase.

Consider `CC[C@H](C)[C@H](N)C(=O)OC(C)OC(=O)C1=C[C@H](NC(=N)N)[C@@H](NC(C)=O)[C@H]([C@H](O)[C@H](O)CO)O1` (stereo partly shown) [Zan-Ile, zanamivir ethoxyisoleucine ester], for which the IC50 in data set [3] (setting [11]) came out at 3040 ± 800 µM.

As for `CC(=O)N[C@H]1[C@H]([C@H](O)[C@H](O)CO)OC(C(=O)OC(C)OC(=O)[C@@H](N)C(C)C)=C[C@@H]1NC(=N)N` (stereo partly shown) [Zan-Val, valine ethoxyester of zanamivir], in [8], the “hydrolysis behaviour in buffer” value is given as “pH dependent hydrolysis”. Besides, the “jejunal permeability” value in data set [2] is reported as “high permeability, higher than that of metoprolol”. In addition, the concentration for half-maximal inhibition (IC50) in data set [3] (setting [11]) amounted to 1950 ± 190 µM. Besides, in [9] (hydrolysis by VACVase, 25° C.), the Kcat stood at 21.2 s⁻¹, the Km was determined as 1550 µM and the Vmax is 47.2 nmol/min/μg of VACVase.

Regarding `CC(=O)N[C@H]1[C@H]([C@H](O)[C@H](O)CO)OC(C(=O)O)=C[C@@H]1N=C(N)N` [Zanamivir, zanamivir], in data set [5], the “% F” value was 3.7%. The Cmax in data set [5] is 60 ng/mL. Further, the “affinity for the transporter” value in [1] and in data set [3] (HeLa/hPEPT1 cells) was “poor affinity” in each case. Also, the absolute oral availability in data set [7] (in vivo, po) was approximately 2%. In addition, the “jejunal permeability” value in [2] is listed as “very low, essentially zero permeability”. Also, in data set [3] (setting [11]), the IC50 is more than 30000 µM.

Consider `CCC(CC)[C@H](NC(C)=O)[C@@H]1[C@H](O)[C@@H](C(=O)O)C[C@H]1N=C(N)N` [peramivir], for which the oral bioavailability in data set [7] (peramivir, clinical trials context) is given as not above 3%.

B1: VACVase (Homo sapiens) (protein)
chain: T2 sequence (Q86WA6 38-291)
Turning to B1, in data set [10], the Km was determined as 590 µM, the turnover number (kcat) was 126 s⁻¹ and the kcat/Km is 213000 M⁻¹ s⁻¹.

As a reminder, the IC50 is the concentration at which inhibition is half-maximal. A word on the Cmax: it is the highest concentration seen after dosing. Usually bioavailability stands for dose-corrected exposure relative to a reference, in per cent. One may read the Km as the concentration of substrate that gives half-maximal velocity. By kcat is commonly meant the number of substrate molecules converted per active site and unit of time at saturation. Usually kcat/Km stands for the second-order rate constant that governs catalysis at low substrate concentration.

The values above are taken from patent US9181281B2, “Prodrugs of neuraminidase inhibitors” (priority 2008, dated 2015).
